# Measured values reported in patent US12558329B2 (New York University, priority 2021, dated 2026).
# Entries after “also recorded” stand apart in the source; their conditions may differ.
# Columns and labels:
# [1] = tested on: human cells; assay: 18O2-GASSP labelling of human cells, untargeted polar metabolomics, with or without IOX1; format: cell-based; conditions: A498 and SKNDZ cells, 3%, 1%, 0.2% 18O2, IOX1 24 hours
# Experimental: To map the molecular fate of O2 in metabolic pathways in living cells, GASSP was used to carry out ^18O2 labelling in cell lines of different tissue origins at ^18O2 concentrations that represented physiological (3%), hypoxic (1%), and severely hypoxic (0.2%) oxygen tensions found in tissues and tumours^7. At the end of each run, polar metabolites were extracted and untargeted polar metabolomics using liquid chromatography-high resolution mass spectrometry (LC-MS) were carried out to identify metabolites labeled with ^18O.
# A list of unique features identified by untargeted metabolomics that were >0.25% (natural abundance of ^18O is 0.2%) labelled by ^18O atoms in each cell line at each oxygen tension was generated. In addition, background signal was controlled by requiring that ^18O labeled peaks had to have a signal that was two-fold greater than naturally occurring isotopes found in non-labelled (^16O) metabolite cell extracts. To determine the proportion of unique ^18O labelled features that were due to dioxygenase activity, cells were treated with a pan-dioxygenase inhibitor (IOX1) at concentrations that inhibit iron-dependent dioxygenases, such as the HIF1α prolyl hydroxylases (FIGS. 5E-5F) and identified ^18O labelled polar metabolites. This list of ^18O metabolites was generated by identifying all features in the unlabelled samples, filtering these features against blank samples to remove background peaks, and calculating the fractional ^18O labelling with the assumption that a metabolite would have no more than three oxygen atoms labelled, followed by manual curation of labelled features (FIG. 1B and FIG. 5G). […] These ^18O-labelled features were termed the oxy-metabolome.
# To determine the identities of the labeled metabolites, the list of ^18O labelled features was annotated to their corresponding unlabelled metabolites using retention time matching, tandem mass spectrometry (MS2) fragmentation patterns, and database searching.
# All steps involved in setting up labelling with ^18O2 were performed at room temperature and inside a chemical fume hood. The procedure may vary depending on the type and number of tissue culture plates in the chamber and the amount of media in the plates. Users must test the system by using ^16O2:CO2:N2 or other unlabelled gases to optimize conditions for their needs and avoid consumption of costly labelled gases. Cells were treated with or without 5 μM MG132, 500 μM IOX1, 250 μM DFO, or 70 μM ascorbate, before placing tissue culture plates into the modular incubator chamber (MIC) containing a wireless oxygen sensor and a 15 cm dish of water to maintain humidity. Next, the clamps were closed to form an air-tight seal between the lid and platform of the MIC. […] N2 flushing was repeated for a total of three times, or until the sensor in the chamber stabilized at 0% O2 for 10 minutes.
# [2] = tested on: MIAPACA2 cells; assay: 13C9-Tyr tracing in MIAPACA2 cells with the indicated reagents; format: cell-based, human
# From the text: 4-HMA biosynthesis has only been described in some bacteria and in rabbits. […] The production of 4-HPPA occurs in the first step of tyrosine (Tyr) catabolism via tyrosine transaminase (TAT). In rabbits, 4-HMA was proposed to be synthesized from the degradation of tyramine and octopamine by dopamine β-hydroxylase (Dbh) and monoamine oxidase (Mao) (FIG. 9A)^13. Tyramine is also a Tyr-derived metabolite. Therefore, all known substrates required to generate 4-HMA are derived from Tyr. In addition, Tyr can also be made from phenylalanine (Phe) by Phe hydroxylase (PAH) in mammalian liver cells^14. To elucidate the human 4-HMA biosynthetic pathway, the fates of ^13C9-Tyr and ^13C6-Phe were traced in human cells. […] Additionally, the generation of 4-HMA by […] would result in the incorporation of a single ^18O at the Ca position of the carboxylic acid of 4-HMA (FIG. 9A). However, this was not observed by ^18O labelling (FIG. 8B). Therefore, it was unlikely that 4-HMA biosynthesis from octopamine and tyramine catabolism occurred in the present system.
# Unexpectedly, 4-HMA levels also were lower in hyperoxic (21%) conditions compared to 3% O2, reflecting either decreased production or increased consumption of this metabolite at 21% O2.
# Therefore, CoQ10 was used as an indirect readout of 4-HB production. To assess the ability of human cells to biosynthesize CoQ10, cells were labelled with ^13C6-Phe or ^13C9-Tyr. CoQ10 was completely biosynthesized from Tyr, but not Phe, in human cells (FIG. 11B).
# For metabolomics, briefly, cells were washed in 4° C. 0.9% saline and metabolites were extracted with 46% methanol:23% H2O:[…] chloroform that contained a labelled amino acid standard mix (MSK-A2-1.2, Cambridge Isotope Laboratories, Inc.). Enzymatic assay samples were extracted using 80% methanol: 20% H2O that contained labelled amino acid standards. Extracts were placed into 1.5 mL Eppendorf tubes, vortexed at 4° C. for 10 min and centrifuged at 4° C. for 10 min at 17,200×g in a microcentrifuge. The aqueous phase was transferred to vials for GC-MS or Eppendorf tubes for LC-MS. Polar samples were evaporated in a SpeedVac and samples were resolved by GC-MS or LC-MS. Lipid samples were dried using a stream of N2 (for ^18O labelling studies) or air. Metabolite and lipid extracts were submitted to the NYULMC Metabolomics Core Resource Laboratory.
# For polar metabolomics, the LC column was a Millipore ZIC-pHILIC (2.1×150 […], 5 μm bead size) coupled to a Dionex UltiMate 3000 system. The column oven temperature was held at 25° C. The flow rate was 100 μL/min, and the injection volume was 1 μL. Buffer A was 10 mM ammonium carbonate in water, pH 9, and Buffer B was neat acetonitrile. The gradient profile was 80-20% B (0-30 min), 20-80% B (30-31 min), and 80-80% B (31-42 min). MS Analyses were carried out on a Thermo Q Exactive HF mass spectrometer using a heated electrospray ionization (HESI) source. The method duration was 30 min using a polarity-switching, top 5 method. The spray voltage for both positive and negative ion modes was 3.5 kV. The capillary temperature was 320° C. with a maximum spray current of 100 ρA. The full MS scan was carried out at 120,000 resolution with a scan range of 67-1000 m/z. For ^18O2 labelling experiments, full MS scans were carried out at 240,000 resolution at the same scan range. Tandem MS spectra were obtained at 15,000 resolution. All data were acquired in profile mode. Peak heights were analyzed using Xcalibur (ThermoFisher Scientific).
# Lipid metabolomics were acquired using a Waters CSH-C18 (2.1×100 mm, 1.7 μm) column coupled to a Dionex UltiMate 3000 system. The column oven temperature was held at 55° C. The flow rate was 300 μL/min and the injection volume was 1 μL. Buffer A was 60:40 acetonitrile:water, 0.1% formic acid and Buffer B was 90:10 isopropanol:acetonitrile, 10 mM ammonium formate. […]
smiles,measurement,setting,value
O=C(O)c1ccc(O)c2ncccc12 [IOX1],4-HMA 18O labeling,[1],decreased
same,13C9-Tyr-derived 4-HMA,"[2]; 3% 16O2, 24 hours",attenuated or ablated; also recorded: severely inhibited
same,CoQ10 labelling from 13C9-Tyr (incorporation of tyrosine into CoQ10),"[2]; 3% 16O2, 24 hours",eliminated; also recorded: completely blocked
same,4-HPLA pools,"[2]; 13C-Tyr, 3% O2, 24 hours",increased
